Data on 1 molecule can be found in US10555930B2, “Complex of a glucopyranosyl derivative and preparation method and use thereof” (SUNSHINE LAKE PHARMA CO., LTD., priority 2015, dated 2020).

The structures appear in SMILES notation.

One data set addresses T1, human SGLT-1 (Homo sapiens, UniProt P13866).
T1 construct: expressed in transfected cells; host or cells: CHO cells (Flp-in CHO)
T1 sequence (P13866 1-664): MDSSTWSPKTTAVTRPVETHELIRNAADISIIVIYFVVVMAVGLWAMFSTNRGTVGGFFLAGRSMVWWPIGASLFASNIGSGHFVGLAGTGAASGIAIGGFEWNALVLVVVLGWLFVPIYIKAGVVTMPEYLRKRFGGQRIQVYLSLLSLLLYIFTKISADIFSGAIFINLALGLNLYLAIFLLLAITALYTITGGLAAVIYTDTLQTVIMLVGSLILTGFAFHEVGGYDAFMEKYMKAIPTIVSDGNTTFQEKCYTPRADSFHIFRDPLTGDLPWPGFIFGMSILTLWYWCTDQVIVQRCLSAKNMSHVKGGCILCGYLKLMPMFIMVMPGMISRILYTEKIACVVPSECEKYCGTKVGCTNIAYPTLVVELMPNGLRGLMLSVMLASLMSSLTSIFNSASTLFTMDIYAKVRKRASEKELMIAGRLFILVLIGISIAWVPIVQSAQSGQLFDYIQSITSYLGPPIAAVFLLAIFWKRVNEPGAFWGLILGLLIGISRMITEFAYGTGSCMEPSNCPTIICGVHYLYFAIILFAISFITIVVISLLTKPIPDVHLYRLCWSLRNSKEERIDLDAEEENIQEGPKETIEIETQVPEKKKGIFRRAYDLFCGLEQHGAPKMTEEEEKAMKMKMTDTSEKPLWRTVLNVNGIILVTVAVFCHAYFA
Put plainly: Inhibitory activity against SGLT-1, [14C]-AMG uptake in CHO cells. It is filed as cell-based. As to conditions: CHO cells expressing human SGLT-1, [14C]-AMG. The protocol: The following method was used for detecting inhibitory activity of the compounds of the invention against SGLT-1 and SGLT-2.
3×10^4 of FIP-in CHO cells transfected Mock and CHO cells expressing human SGLT-1/SGLT-2 gene were seeded into a 96-well cell culture plate; the cells were incubated for 12 hours, and then to each well was added 150 μL of Na-free buffer to wash the cells once; and then to each well were added 50 μL of Na buffer containing the compound at different concentrations and 0.5 μM [^14C]-AMG, and the plate was incubated in a incubator at 37° C. for 1 hour, the reaction was terminated by adding 150 μL of pre-cooled Na-free buffer; the cells were further washed with Na-free buffer 3 times and the residual liquid was removed; to each well was added 20 μL of pre-cooled NaOH ([…]), the plate was vibrated at 900 rpm for 5 min; and then to each well was added 80 μL of scintillation solution, the plate was vibrated at 600 rpm for 5 min; the plate was analyzed on liquid scintillation counter.

Data set [1] can be described thus: Pharmacokinetic evaluation in beagles after intravenous injection and oral administration. It is filed as in vivo. As to conditions: 0.1 mg/kg. As to the method: The test sample (Complex (IA) prepared from example 2 of the invention) was dissolved in normal saline (100%) to get a solution at a concentration of 0.04 mg/mL, which was administered by i.v; the same test sample was suspended in 0.5% HPMC to get a suspension at a concentration of 0.02 mg/mL, 0.10 mg/mL, 0.50 mg/mL, 2.00 mg/mL, which was administered by gavage. The beagles were grouped randomly, each dosage group had 6 beagles, half male and half female, which were fasted for 12 h before administered, free drank. After administration of 4 h, beagles uniform ate. The single oral administration group was grouped to 4 dosage groups, which were administered the test sample suspension by gavage respectively, the dosage respectively was 0.1, 0.5, 2.5 and 10 mg/kg, and the volume of the suspension was 5 mL/kg. The blood samples were collected before administration of 0 h, and after administration of 0.25, 0.5, 1.0, 2.0, 4.0, 6.0, 8.0, 10, 12 and 48 h from lateral small saphenous vein or medial head vein of forelimb, which were placed into EDTA-K2 anticoagulative tubes. The i.v group had one dosage group, the test sample solution was administered by i.v at a dosage of 0.1 mg/kg, and the volume of the solution was 2.5 mL/kg. The blood samples were collected before administration of 0 h, and after administration of 5 min, 15 min, 0.5, 1.0, 2.0, 4.0, 6.0, 8.0, 10, 12 and 48 h from lateral small saphenous vein or medial head vein of forelimb, which were placed into EDTA-K2 anticoagulative tubes. The blood samples were centrifuged for 2 min at 11000 rpm, the plasma samples were isolated and stored at −70° C.±10° C.
The concentration of the test sample in plasma was analyzed by the LC-MS/MS method, the pharmacokinetic parameters were calculaged by the […] model method using WinNonlin 6.3 software, and drug-time curve was plotted.
The LC/MS/MS system comprised Agilent 1200 series vacuum […], binary pumps, well-plate autosampler, thermostatted column compartment, the API 4000 QTRAP Triple Quadrupole Mass Spectrometer with an electrosprayionization (ESI) source. Quantitative analysis was carried out using MRM mode.
A Waters Xbridge-C18, 2.1×30 mm, […] column was used for the analysis, 5 μL of the sample was injected. Analysis condition: The mobile phase was […] ammonium formate+0.1% formic acid in water (A) and 2 mM ammonium formate+0.1% formic acidin methanol (B). The flow rate was 0.4 mL/min And the gradient of Mobile phase was in the Table E.

Data set [2] can be described thus: Measurement of solubility (Chinese Pharmacopoeia 2010 method). The class given is physicochemical. An excerpt: Judgement standard of solubility are shown as table A.
Data set [3] can be described thus: Measurement of hygroscopicity (Chinese Pharmacopoeia 2010, part II, appendix XIXJ). The class given is physicochemical. Particulars: 25° C.±1° C., constant humidity (ammonium chloride or ammonium sulfate saturated solution), 24 h. The protocol:
Test method: According to the method regulated by Chinese pharmacopoeia 2010, part II, appendix XIXJ, a dry glass weighing bottle with a stopper (outside diameter is 50 mm, high is 15 mm) was placed in a thermostatic drier (an ammonium chloride or ammonium sulfate saturated solution was placed in the bottom) at 25° C.±1° C. before one day of experiment, the empty glass weighing bottle with a stopper was weighed accurately by using METTLERTOLEDO XP205DR analytical balance, and recorded as m1. An appropriate amount of the Complex (IA) sample (prepared from example 2) was tiled on the above weighing bottle at a thickness of 1 mm, which was weighed accurately and recorded as m2. Opening the bottle, the bottle was placed under the above constant temperature and humidity condition for 24 h […]. Closing the bottle with the stopper, the bottle was weighed accurately, and recorded as m3, the weight gain percentage (%) was calculated.
The judgement of the results hygroscopicity was shown as table C.

Where [4] appears, read: both sexes, beagle, dog, plasma, iv, i.v.
Where [5] appears, read: both sexes, beagle, dog, plasma, po, p.o.
The mark [6] stands for this setting: solvent DMA, sampling weight 100.02, solvent volume 0.095 mL.
[7] abbreviates: solvent DMSO, sampling weight 100.16, solvent volume 0.095 mL.
[8] abbreviates: solvent acetonitrile, sampling weight 100.20, solvent volume 2.90 mL.
Setting [9] is: solvent ethanol, sampling weight 100.10, solvent volume 2.90 mL.
Where [10] appears, read: solvent methanol, sampling weight 100.23, solvent volume 0.095 mL.

Broadly, the AUC(0-t) is exposure summed from dosing to a finite time, without extrapolation to infinity. A low value points to low exposure. Broadly, the Cmax is the peak of the concentration-time curve. What is called half-life is the time needed for the level to fall by half in the phase considered. A high value points to slow loss. As usually defined, the bioavailability is the share of a dose that reaches the circulation, judged against a reference dose that is usually intravenous. Turning to `CCOc1ccc(Cc2cc([C@]34OC[C@]([C@@H](C)O)(O3)[C@@H](O)[C@H](O)[C@H]4O)ccc2Cl)cc1` [Complex (IA), Complex (IA) of (1R,2S,3S,4R,5S)-5-(4-chloro-3-(4-ethoxybenzyl)phenyl)-1-((1R)-1-hydroxyethyl)-6,8-dioxabicyclo[3.2.1]octane-2,3,4-triol (I-n) and L-pyroglutamic acid], the SGLT-1 inhibitory activity entry on human SGLT-1 was “has SGLT-2 and SGLT-1 inhibitory activity”. Moreover, the values for the AUC(0-t) in data set [1] (setting [4]) and in data set [1] (setting [5]) were 617 ng·h/mL and 602 ng·h/mL, respectively. Besides, the Cmax in data set [1] (setting [4]) was 148 ng/mL; in data set [1] (setting [5]), 66.2 ng/mL. Besides, the half-life in data set [1] (setting [4]) is 8.97 h; in data set [1] (both sexes, beagle, dog, plasma, oral, p.o), 8.88 h. The bioavailability in data set [1] (both sexes, beagle, dog, plasma, po, p.o, read-out: F (oral bioavailability)) amounted to 97.5%. For the same molecule, the “F (oral bioavailability)” value in data set [1] (p.o) is 97.57%. Further, in data set [2] (in acetonitrile, methanol, ethanol, DMSO and DMA), the “solubility (summary in words)” value is “good solubility”. The solubility results is “Very soluble (1 g (mL) of solute can be dissolved completely in a <1 mL of solvent)” in data set [2] (setting [6]); “Very soluble (1 g (mL) of solute can be dissolved completely in a <1 mL of solvent)” in data set [2] (setting [7]); “Soluble (1 g (mL) of solute can be dissolved completely in a 10 to <30 mL of solvent)” in data set [2] (setting [8]); “Soluble (1 g (mL) of solute can be dissolved completely in a 10 to <30 mL of solvent)” in data set [2] (setting [9]); “Very soluble (1 g (mL) of solute can be dissolved completely in a <1 mL of solvent)” in data set [2] (setting [10]). Further, the yes/no dissolved entry in data set [2] (setting [6]) is “yes”; in data set [2] (setting [7]), “yes”; in data set [2] (setting [8]), “yes”; in data set [2] (setting [9]) it was “yes”; in data set [2] (setting [10]), “yes”; in data set [2] (solvent water, sampling weight 10.33, solvent volume 102 mL), “no”. This molecule also came in with a weight gain percentage in data set [3] of 0.27%.
